Experimental data taken from patent US7674823B2, “DNA-PK inhibitors” (Cancer Research Technology Limited, priority 2001, dated 2010).
Where two headings read alike, the source gives them in different places.

Legend:
HeLa cells = test: Enhancement Ratio: cell growth inhibition (SRB assay) after 2 Gy irradiation; format: cell-based; settings: inhibitor 25 μM
Procedure: DNA-PK inhibitors were used at a fixed concentration of 25 micromolar. Radiation was delivered by a Faxitron 43855D X-ray system at a dose rate of 1Gy per minute The Enhancement ratio at 2 Gy irradiation was calculated from the formula: [formula] Cell growth was assessed using the sulforhodamine B (SRB) assay (Skehan, P., Storung, R., Scudiero, R., Monks, […]., Kenny, S. and Boyd, M. R. (1990) New calorimetric cytotoxicity assay for anticancer-drug screening. J. Natl. Cancer Inst. 82:1107-1112). 400 HeLa cells were seeded into each well of a flat-bottomed 48-well microtiter plate in a volume of 200 μl and incubated for 6 h at 37° C. […] Cells were allowed to grow for a further 1 h before irradiation or mock irradiation. Cells untreated with DNA-PK inhibitor or unirradiated were used as a control. Cells treated with DNA-PK inhibitor alone were used to assess the growth inhibition by the DNA-PK inhibitor. Cells were left for a further 16 h before replacing the media and allowing the cells to grow for a further 6 days at 37° C. The media was then removed and the cells fixed with 200 μl of ice cold 10% (w/v) trichloroacetic acid. The plates were incubated at 4° C. for 20 minutes and then washed four times with water. Each well of cells was then stained with 200 μl of 0.4% (w/v) SRB in 1% acetic acid for 20 minutes before washing four times with 1% acetic acid. Plates were then dried for 2 h at room temperature. The dye from the stained cells was solubilized by the addition of 100 μl of 10 mM Tris Base into each well. Plates were gently shaken and left at room temperature for 30 minutes before measuring the optical density at 564 nm on a Microquant microtiter plate reader.

[1] = target: T1, Mammalian DNA-PK, isolated from Hela cell nuclear extract (Homo sapiens, UniProt P78527); test: DNA-PK inhibition assay (33P-ATP, filter binding); format: biochemical
T1 construct: Mammalian DNA-PK, isolated from Hela cell nuclear extract; endogenous in cells; host or cells: HeLa cell nuclear extract (purified per Gell and Jackson 1999)
Outline: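 DNA-PK from HeLa nuclear extract preincubated with compound 10 min at 30 °C, then started with 50 μM Na-ATP final, ^33P-γATP and 30mer dsDNA (10 ng/μl), run 45 min at 30 °C.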

ATM protein [2] = test: ATM inhibition assay (immunoprecipitated ATM, GSTp53N66 substrate); format: biochemical, human; settings: selectivity ratio from the IC50s for ATM and DNA-PK
Procedure: (§1) In order to assess the inhibitory action of the compounds against ATM in vitro, the following assay was used to determine IC50 values.
(§2) ATM protein was immunoprecipitated from HeLa cell nuclear extract using rabbit polyclonal antisera raised to the C-terminal ˜500 amino-acid residues of the human ATM protein. The immunoprecipitation was performed according to the methodology described by Banin, S. et al. (1998) Enhanced phosphorylation of p53 by ATM in response to DNA damage. Science 281:1674-1677. 10 μl of immunoprecipitated ATM in Buffer C (50 mM Hepes, pH 7.4, 6 mM MgCl2, 150 mM NaCl, 0.1 mM sodium orthovanadate, 4 mM MnCl2, 0.1 mM dithiothreitol, 10% glycerol) was added to 32.5 μl of buffer C containing 1 μg of the ATM substrate GSTp53N66 in a V-bottomed 96 well polypropylene plate. The GSTp53N66 substrate is the amino terminal 66 amino acid residues of human wild type p53 fused to glutathione S-transferase. ATM phosphorylates p53 on the residue serine 15 (Banin, S. et al. (1998) Enhanced phosphorylation of p53 by ATM in response to DNA damage. Science 281:1674-1677). Varying concentrations of inhibitor were then added. […] After 10 minutes of incubation at 37° C., the reactions were initiated by the addition of 5 μl of 50 μM Na-ATP. After 1 h with shaking at 37° C., 150 μl of phosphate buffered saline (PBS) was added to the reaction and the plate centrifuged at 1500 rpm for 10 minutes. 5 μl of the reaction was then transferred to a 96 well opaque white plate containing 45 μl of PBS to allow the GSTp53N66 substrate to bind to the plate wells. The plate was covered and incubated at room temperature for 1 h with shaking before discarding the contents. The plate wells were washed twice by the addition of PBS prior to the addition of 3% (w/v) bovine serum albumin (BSA) in PBS. The plate was incubated at room temperature for 1 h with shaking before discarding the contents and washing twice with PBS. To the wells, 50 μl of a 1:10,000 dilution of primary phosphoserine-15 antibody (Cell Signaling Technology, #9284L) in 3% BSA/PBS was added to detect the phosphorylation event on the serine 15 residue of p53 elicited by the ATM kinase. After 1 h of incubation at room temperature with shaking, the wells were washed four times with PBS prior to the addition of an anti-rabbit HRP conjugated secondary antibody (Pierce, 31462) with shaking for 1 h at room temperature. The wells were then washed four times with PBS before the addition of chemiluminescence reagent (NEN Renaissance, NEL105). The plate was then shaken briefly, covered with a transparent plate seal and transferred to a TopCount NXT for chemiluminescent counting. Counts per second, following a one second counting time, were recorded for each reaction. The inhibition of ATM activity by compounds was calculated as described above for the DNA-PK assay.
(§3) The selectivity was determined by the following equation: […]

ATM protein [3] = target: T2, ATM protein (Homo sapiens, UniProt Q13315); test: as above; format: biochemical
T2 construct: ATM protein was immunoprecipitated from HeLa cell nuclear extract; endogenous in cells; host or cells: HeLa cell nuclear extract (immunoprecipitate)
Procedure: as §1, §2, §3

[4] = IC50 of less than about 1 μM and/or % inhibition of more than about 50 at 1 μM, read-out: DNA-PK inhibition IC50 (particular efficacy)
[5] = concentration at which 50% of the enzyme activity is inhibited, read-out: DNA-PK Inhibition IC50

T2 sequence (Q13315 whole entry): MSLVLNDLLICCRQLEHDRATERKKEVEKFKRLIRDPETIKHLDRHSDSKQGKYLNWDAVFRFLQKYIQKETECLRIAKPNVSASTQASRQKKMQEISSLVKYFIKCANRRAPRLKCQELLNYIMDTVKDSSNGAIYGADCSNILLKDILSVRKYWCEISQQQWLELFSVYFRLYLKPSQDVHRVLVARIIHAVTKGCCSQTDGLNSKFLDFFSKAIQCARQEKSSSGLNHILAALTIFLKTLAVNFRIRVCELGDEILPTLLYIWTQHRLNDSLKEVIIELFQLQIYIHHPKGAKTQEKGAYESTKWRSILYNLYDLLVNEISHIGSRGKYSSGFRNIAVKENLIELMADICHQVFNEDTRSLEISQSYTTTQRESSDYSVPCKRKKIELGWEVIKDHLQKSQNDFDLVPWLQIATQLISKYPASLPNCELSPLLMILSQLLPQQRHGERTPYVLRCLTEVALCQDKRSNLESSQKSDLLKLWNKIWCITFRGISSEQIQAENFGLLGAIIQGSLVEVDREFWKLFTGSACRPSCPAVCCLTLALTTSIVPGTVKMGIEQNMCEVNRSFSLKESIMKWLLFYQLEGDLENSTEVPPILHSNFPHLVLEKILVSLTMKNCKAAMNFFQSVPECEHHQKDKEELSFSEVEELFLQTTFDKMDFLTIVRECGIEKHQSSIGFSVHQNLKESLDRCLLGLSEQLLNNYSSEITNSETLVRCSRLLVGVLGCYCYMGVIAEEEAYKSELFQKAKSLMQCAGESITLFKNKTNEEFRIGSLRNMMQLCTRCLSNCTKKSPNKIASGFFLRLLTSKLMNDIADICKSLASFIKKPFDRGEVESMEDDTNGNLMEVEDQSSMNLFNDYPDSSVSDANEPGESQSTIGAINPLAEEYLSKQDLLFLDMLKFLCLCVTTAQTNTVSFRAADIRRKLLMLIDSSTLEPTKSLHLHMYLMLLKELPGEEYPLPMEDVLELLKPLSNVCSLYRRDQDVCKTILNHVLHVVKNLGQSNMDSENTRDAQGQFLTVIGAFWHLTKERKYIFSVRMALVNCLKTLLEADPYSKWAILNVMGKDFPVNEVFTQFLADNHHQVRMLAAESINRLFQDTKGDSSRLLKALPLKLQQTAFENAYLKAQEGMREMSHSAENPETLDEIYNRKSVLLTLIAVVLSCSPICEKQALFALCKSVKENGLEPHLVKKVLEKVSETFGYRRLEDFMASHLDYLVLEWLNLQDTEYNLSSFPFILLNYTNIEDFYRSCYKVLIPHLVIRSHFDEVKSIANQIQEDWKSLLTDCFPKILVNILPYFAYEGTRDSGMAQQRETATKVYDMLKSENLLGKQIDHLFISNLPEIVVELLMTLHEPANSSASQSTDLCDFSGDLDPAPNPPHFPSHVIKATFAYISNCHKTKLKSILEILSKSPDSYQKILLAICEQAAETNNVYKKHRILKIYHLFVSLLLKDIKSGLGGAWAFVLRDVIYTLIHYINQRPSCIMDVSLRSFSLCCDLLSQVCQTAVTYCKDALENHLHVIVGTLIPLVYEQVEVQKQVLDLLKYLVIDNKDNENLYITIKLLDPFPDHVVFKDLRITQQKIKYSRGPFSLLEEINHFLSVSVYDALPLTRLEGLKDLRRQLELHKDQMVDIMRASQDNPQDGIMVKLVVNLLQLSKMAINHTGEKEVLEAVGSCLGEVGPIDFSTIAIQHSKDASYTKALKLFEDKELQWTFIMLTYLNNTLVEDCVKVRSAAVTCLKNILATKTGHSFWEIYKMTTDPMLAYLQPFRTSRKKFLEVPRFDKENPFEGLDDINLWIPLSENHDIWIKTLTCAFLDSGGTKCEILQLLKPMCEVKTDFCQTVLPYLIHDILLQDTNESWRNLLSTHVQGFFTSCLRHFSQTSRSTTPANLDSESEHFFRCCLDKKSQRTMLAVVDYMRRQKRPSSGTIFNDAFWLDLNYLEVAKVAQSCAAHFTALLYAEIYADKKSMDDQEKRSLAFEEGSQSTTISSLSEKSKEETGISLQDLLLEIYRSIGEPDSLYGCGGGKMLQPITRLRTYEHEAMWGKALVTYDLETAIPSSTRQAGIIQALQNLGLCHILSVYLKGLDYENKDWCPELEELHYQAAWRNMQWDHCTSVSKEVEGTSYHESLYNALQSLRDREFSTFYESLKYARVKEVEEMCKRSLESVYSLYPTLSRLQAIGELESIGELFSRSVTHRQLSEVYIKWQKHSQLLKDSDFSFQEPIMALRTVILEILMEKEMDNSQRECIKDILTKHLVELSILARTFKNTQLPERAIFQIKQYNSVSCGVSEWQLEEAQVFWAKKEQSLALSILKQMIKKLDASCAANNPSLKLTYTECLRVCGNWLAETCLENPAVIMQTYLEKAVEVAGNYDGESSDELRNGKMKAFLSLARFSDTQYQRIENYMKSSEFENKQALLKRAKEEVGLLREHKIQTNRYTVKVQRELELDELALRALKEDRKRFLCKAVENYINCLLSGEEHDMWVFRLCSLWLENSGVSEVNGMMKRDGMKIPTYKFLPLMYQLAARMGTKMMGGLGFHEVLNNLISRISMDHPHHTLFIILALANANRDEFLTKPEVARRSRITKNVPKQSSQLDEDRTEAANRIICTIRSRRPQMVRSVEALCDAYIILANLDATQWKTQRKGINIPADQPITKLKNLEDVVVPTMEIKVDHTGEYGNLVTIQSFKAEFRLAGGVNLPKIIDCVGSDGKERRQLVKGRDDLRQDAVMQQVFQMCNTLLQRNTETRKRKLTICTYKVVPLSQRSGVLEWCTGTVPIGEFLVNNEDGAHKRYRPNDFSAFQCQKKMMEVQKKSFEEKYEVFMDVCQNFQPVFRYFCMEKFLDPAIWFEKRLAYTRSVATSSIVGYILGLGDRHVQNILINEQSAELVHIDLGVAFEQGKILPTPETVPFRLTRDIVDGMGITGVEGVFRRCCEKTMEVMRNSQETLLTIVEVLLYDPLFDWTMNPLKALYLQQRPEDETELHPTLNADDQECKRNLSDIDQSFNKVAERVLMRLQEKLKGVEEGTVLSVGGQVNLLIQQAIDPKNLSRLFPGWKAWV

In the case of `O=c1cc(N2CCOCC2)oc2c3c(ccc12)CCCC3` [Compound 297, 7,8,9,10-tetrahydro-benzo[h]-2-(morpholin-4-yl)-chromen-4-one], the melting point is reported as 220 to 222 °C, the “Enhancement Ratio (ER)” value (HeLa cells) is reported as 2.12 and the IC50 [1, 4] is reported as under 1 µM. The IC50 [1, 5] was 0.5 µM, the “Δ(DNA-PK/ATM)” value (ATM protein [2]) was 90 and the IC50 (ATM protein [3]) was 45 µM.

In the case of `CC1CN(c2cc(=O)c3ccc4ccccc4c3o2)CCO1` (stereo not drawn) [Compound 317, 2-(2-Methyl-morpholin-4-yl)-benzo[h]chromen-4-one], the melting point is reported as 181 to 183 °C, the “Enhancement Ratio (ER)” value (HeLa cells) is reported as 3.62 and the IC50 [1, 4] is reported as under 1 µM. The IC50 [1, 5] was 0.3 µM, the “Δ(DNA-PK/ATM)” value (ATM protein [2]) was over 333 and the IC50 (ATM protein [3]) was over 100 µM.

For `O=C1c2ccccc2C(=O)N1CCCOc1ccc2c(=O)cc(N3CCOCC3)oc2c1` [Compound 422, N-[3-(2-(Morpholin-4-yl)-4-oxo-4H-chromen-7-yloxy)-propyl]-phthalimide], the melting point was 210 to 211 °C, the “Enhancement Ratio (ER)” value (HeLa cells) was 1.68 and the IC50 [1, 4] was under 1 µM. For the same compound, the IC50 [1, 5] was 0.5 µM, the “Δ(DNA-PK/ATM)” value (ATM protein [2]) was over 200 and the IC50 (ATM protein [3]) was over 100 µM.
